Measured values reported in patent publication US20220105058A1, “USE OF 3-O-SULFAMATE-16,16-DIMETHYL-D-HOMOEQUILENIN TO TREAT ONCOLOGICAL DISEASES” (priority 2018, published 2022).
Values joined by “and” are separate entries in the source; they are usually repeats but may differ in a detail not shown here. Equal entries are not always repeated. Where two headings read alike, the source gives them in different places. Marks after values point to notes of the source that are not given here.

Tests used:
[1] = test system: Breast tumors (BT) in female FBV/N mice transgenic for HER-2/neu; test: antitumor activity in mice with HER-2/neu breast tumors; format: in vivo, FVB mice transgenic for HER-2/neu; conditions: for frequency of tumor stabilizations: end of observation; for antitumor efficacy compared with Tamoxifen: mouse, in vivo
From the text: The age of animals at the beginning of the study was 21-41 weeks and weight was 25-30 g.
The control groups were given the olive oil (placebo).
TGI=(Vctrl−Vexp)/Vctrl×100(%),

[2] = test system: subcutaneous xenografts of human SKBR-3 breast cancer
Description: (§1) A comparative study of the medicaments in vivo was performed in female Balb/c nude mice with subcutaneously (s.c.) transplanted tumor cells. The experiment lasted for 29 days after the medicament administration for the first time (the administration of the medicaments was started on Day 5 after the tumor strain transplantation).
(§2) The medicament and the reference drug were administered intragastrically multiple times at doses of 30 mg/kg and 10 mg/kg daily for 21 days.
(§3) The placebo group was given 1% starch solution intragastrically in equivalent volumes and in the same regime. Tumor nodes were measured 2 times per week. […] Once the treatment was completed, the last tumor measurement was carried out, and animals were weighed and euthanized.
(§4) The animals were weighed on the first day of the experiment, and then 2 times per week throughout the experiment according to the research protocol.
(§5) A tumor node was measured after tumor transplantation 2 times per week throughout the experiment. The tumor node volume was determined by the formula:
(§6) V=π/6*L*W*H, where L, W, H are the linear size dimensions of the tumor.
(§7) Determination of Antitumor Activity
(§8) Tumor growth inhibition index (TGI) was used as a criterion for the study of the medicament efficacy and calculated by the formula as follows:
(§9) TGI (%)=|Vctrl−Vexp|/Vctrl*100
(§10) where Vctrl and Vexp are the average tumor volume (mm^3) in the control and in the experimental groups, respectively.
(§11) After the course of the treatment, the animals were euthanized by the cervical dislocation of cervical vertebrae.
(§12) The statistical data processing was conducted using SPSS 21 package (license No. 20130626-3). Descriptive statistics in the study includes the following: arithmetic average, standard deviation (SD), standard mean error (SE), median, quartiles, interquartile range. To compare quantitative characteristics in the groups, the Mann-Whitney-Wilcoxon test was used without corrections for multiple comparisons. The results were considered statistically significant at p<0.05.

[3] = test system: subcutaneous xenografts of human TNBC-Kad breast cancer
Description: as §1, §2, §3, §4, §5, §6, §7, §8, §9, §10, §11, §12

[4] = pilot experiment, medicament 10 mg/kg, Day 10

## CC1(C)CC(=O)[C@@]2(C)CCc3c(ccc4cc(OS(N)(=O)=O)ccc34)[C@@H]2C1 [medicament, 3-O-sulfamate-16,16-dimethyl-D-homoequilenin]
[1]; medicament 100 mg/kg, Day 21
  TGI (average total tumor volume): 46%
  TGI (average tumor volume): 33%
  average total volume of tumors in mice (M): 2.75** cm^3
  average volume of tumors (M): 0.57* cm^3
  relative change of the average total volume to that of Day − 1 (M): 75^aa %
[1]; medicament 100 mg/kg, Day 28
  TGI (average total tumor volume): 53%
  TGI (average tumor volume): 42%
  average total volume of tumors in mice (M): 2.71**^a cm^3
  average volume of tumors (M): 0.56**^a cm^3
  relative change of the average total volume to that of Day − 1 (M): 69**^aa %
[1]; medicament 100 mg/kg, end of experiment
  Total number of new tumors: 15
[1]; medicament 100 mg/kg
  frequency of tumor stabilizations: 27%
[1]; medicament 100 mg/kg, listed as compound
  frequency of tumor stabilizations: 27%
[1]
  antitumor efficacy compared with Tamoxifen: statistically significantly more effective
[1]; listed as agent
  antitumor efficacy compared with Tamoxifen: inhibits the proliferation of tumours more effectively
[2]; medicament 10 mg/kg
  number of dead mice before the end of the observation period: 5 out of 7
[2]; medicament 10 mg/kg i.g. daily, Day 0 of treatment
  average tumor volume (M ± m): 1.0±0.4 mm^3
[2]; medicament 10 mg/kg i.g. daily, Day 0 of treatment, listed as Steroid
  average tumor volume (M ± m): 1.0 ± 0.4 mm^3
[2]; medicament 10 mg/kg, Day 3
  average tumor volume (M ± m): 1.2 ± 0.4 mm^3
[2]; medicament 10 mg/kg, Day 7
  SKBR-3 growth inhibition, TGI: 74.3%
  average tumor volume (M ± m): 5.1±2.3 mm^3
[2]; medicament 10 mg/kg, Day 7, listed as Steroid
  average tumor volume (M ± m): 5.1 ± 2.3 mm^3
[2]; medicament 10 mg/kg, Day 10
  SKBR-3 growth inhibition, TGI: 68.0%
  average tumor volume (M ± m): 24.8±12.2 mm^3
[2]; medicament 10 mg/kg, Day 10, listed as Steroid
  average tumor volume (M ± m): 24.8 ± 12.2 mm^3
[2]; medicament 10 mg/kg, Day 14
  SKBR-3 growth inhibition, TGI: 94.3%
  average tumor volume (M ± m): 6.9±2.2 mm^3
[2]; medicament 10 mg/kg, Day 14, listed as Steroid
  average tumor volume (M ± m): 6.9 ± 2.2 mm^3
[2]; medicament 10 mg/kg, Day 17
  SKBR-3 growth inhibition, TGI: 90.6%
  average tumor volume (M ± m): 17.6±0.7 mm^3
[2]; medicament 10 mg/kg, Day 17, listed as Steroid
  average tumor volume (M ± m): 17.6 ± 0.7 mm^3
[2]; medicament 10 mg/kg, Day 21
  SKBR-3 growth inhibition, TGI: 90.2%
  average tumor volume (M ± m): 26.1±12.1 mm^3
[2]; medicament 10 mg/kg, Day 21, listed as Steroid
  average tumor volume (M ± m): 26.2 ± 12.1 mm^3
[2]; medicament 10 mg/kg, Day 24
  SKBR-3 growth inhibition, TGI: 86.3%
  average tumor volume (M ± m): 32.0 ± 6.9 mm^3
[2]; [4]
  average tumor volume (Vaverage): 2.2±2.0 mm^3
  maximum TGI: 91.2%
[3]; medicament 10 mg/kg
  number of dead mice before the end of the observation period: 10 out of 10
[3]; medicament 10 mg/kg, Day 3
  average tumor volume (M ± m): 5.65 ± 1.64 mm^3
[3]; medicament 10 mg/kg, Day 7
  TNBC_Kad growth inhibition, TGI: 66.1%
  average tumor volume (M ± m): 27.0±5.1 mm^3 and 26.98 ± 5.12 mm^3
[3]; medicament 10 mg/kg, Day 10
  TNBC_Kad growth inhibition, TGI: 78.7%
  average tumor volume (M ± m): 21.6±4.9 mm^3 and 21.59 ± 4.88 mm^3
[3]; medicament 10 mg/kg, Day 14
  TNBC_Kad growth inhibition, TGI: 83.1%
  average tumor volume (M ± m): 27.6±2.6 mm^3 and 27.59 ± 2.57 mm^3
[3]; medicament 10 mg/kg, Day 17
  TNBC_Kad growth inhibition, TGI: 76.1%
  average tumor volume (M ± m): 46.3±5.3 mm^3 and 46.25 ± 5.31 mm^3
[3]; medicament i.g. 10 mg/kg, Day 0 of treatment
  average tumor volume (M ± m): 1.6±0.4 mm^3 and 1.57 ± 0.35 mm^3
[3]; xenograft human tumor of triple negative breast cancer
  efficacy compared with tamoxifen and letrozole: more effective than tamoxifen and aromatase inhibitor letrozole
